*1 amine or outer side, *2 acyl side, *3 side chain or, on linkers, in order; H or OH if unused. Where a SMILES comes first, the peptide text is derived from it. Side-chain parts run from the residue outwards. [ ]: non-standard residue; d: D form. The star is where a group is joined. Isobutyryl(2-(3-CN-5-F-Ph)) = CC(C)(C(=O)*)c1cc(F)cc(C#N)c1; cPentCO(1-(4-ClPh)) = O=C(C1(c2ccc(Cl)cc2)CCCC1)*; C20 diacid = O=C(O)CCCCCCCCCCCCCCCCCCC(=O)*; X49 = O=C([C@H](CN[*:1])c1ccccc1)[*:2]; γGlu = O=C(O)[C@H](CCC(=O)[*:2])N[*:1]; X19 = O=C1COc2ccccc2N1CCNCCC(=O)*; X28 = O=C(C1(n2cccn2)CCNCC1)*; AEEA = NCCOCCOCC(=O)O; Aib = CC(C)(N)C(=O)O; βAla = NCCC(=O)O

What all share (format): cell-based
Test [1] concerns the target T1, GLP-1 receptor (Homo sapiens, UniProt P43220). The test is described as follows: PathHunter β-arrestin assay, GLP-1 receptor. Also noted: host or cells: PathHunter CHO-K1 GLP1R β-Arrestin Cell Line. Particulars: β-arrestin-2 recruitment, PathHunter CHO-K1 GLP1R β-Arrestin Cell Line, 90 min at 37° C.; normalized to GLP-1; read-out: GLP-1R β Arrestin EC50.
The target in test [2] is T2, GIP receptor (Homo sapiens, UniProt P48546).
T2 sequence (P48546 22-466): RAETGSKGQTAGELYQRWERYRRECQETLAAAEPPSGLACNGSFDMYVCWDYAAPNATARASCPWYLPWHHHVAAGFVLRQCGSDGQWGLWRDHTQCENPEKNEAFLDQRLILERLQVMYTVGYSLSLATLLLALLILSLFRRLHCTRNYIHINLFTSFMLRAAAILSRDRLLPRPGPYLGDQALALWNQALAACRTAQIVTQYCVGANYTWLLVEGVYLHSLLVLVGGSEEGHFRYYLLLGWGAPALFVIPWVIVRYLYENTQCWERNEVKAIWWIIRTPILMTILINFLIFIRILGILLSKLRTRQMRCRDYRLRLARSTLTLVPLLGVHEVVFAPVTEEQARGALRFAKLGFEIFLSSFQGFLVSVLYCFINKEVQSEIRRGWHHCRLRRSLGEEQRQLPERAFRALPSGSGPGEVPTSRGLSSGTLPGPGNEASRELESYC
The test is described as follows: PathHunter β-arrestin assay, GIP receptor. Also noted: host or cells: PathHunter CHO-K1 GIPR β-Arrestin Cell Line. The note with it: β-arrestin-2 recruitment, PathHunter CHO-K1 GIPR β-Arrestin Cell Line, 90 min at 37° C.; normalized to GIP; read-out: GIPR β Arrestin EC50.

Test [3] addresses T2, GIP receptor. Briefly: HitHunter cAMP assay, GIP receptor. The note with it: for EC50: CHO cells stably expressing GIP receptor, cAMP accumulation, 30 min, read-out: EC50 GIP-1R; for Emax: CHO cells, cAMP, normalized to maximum signal from GIP (high) and DMSO (low), read-out: Emax GIP-1R.
Test [4] concerns the target T1, GLP-1 receptor. The test is described as follows: HitHunter cAMP assay, GLP-1 receptor. Particulars: for EC50: CHO cells stably expressing human GLP-1 receptor, cAMP accumulation, 30 min, read-out: EC50 GLP-1R; for Emax: CHO cells, cAMP, normalized to maximum signal from GLP-1 (high) and DMSO (low), read-out: Emax GLP-1R.

T1 sequence (P43220 24-463): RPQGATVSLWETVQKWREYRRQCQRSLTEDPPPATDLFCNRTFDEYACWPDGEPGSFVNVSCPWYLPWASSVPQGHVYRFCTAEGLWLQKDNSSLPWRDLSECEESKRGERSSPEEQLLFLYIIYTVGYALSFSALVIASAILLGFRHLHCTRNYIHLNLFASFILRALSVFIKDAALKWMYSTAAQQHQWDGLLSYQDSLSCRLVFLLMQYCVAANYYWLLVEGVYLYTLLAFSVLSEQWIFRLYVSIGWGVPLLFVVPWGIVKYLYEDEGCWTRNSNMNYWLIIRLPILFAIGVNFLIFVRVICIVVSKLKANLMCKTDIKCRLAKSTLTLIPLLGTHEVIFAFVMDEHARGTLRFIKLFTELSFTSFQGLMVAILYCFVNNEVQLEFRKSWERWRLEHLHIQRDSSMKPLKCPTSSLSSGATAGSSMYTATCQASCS

As to `CC[C@H](C)[C@H](NC(=O)[C@H](CC(C)C)NC(=O)[C@H](Cc1c[nH]c2ccccc12)NC(=O)[C@H](CCC(N)=O)NC(=O)[C@@H](NC(=O)[C@H](Cc1ccccc1)NC(=O)[C@H](C)NC(=O)[C@H](CCCCNC(=O)COCCOCCNC(=O)COCCOCCNC(=O)CC[C@H](NC(=O)CCCCCCCCCCCCCCCCCCC(=O)O)C(=O)O)NC(=O)[C@H](CCC(N)=O)NC(=O)[C@H](C)NC(=O)[C@@H](NC(=O)[C@H](CCCCN)NC(=O)[C@H](CC(=O)O)NC(=O)[C@H](CC(C)C)NC(=O)C(C)(C)NC(=O)[C@@H](NC(=O)[C@H](CO)NC(=O)[C@H](Cc1ccc(O)cc1)NC(=O)[C@H](CC(=O)O)NC(=O)[C@H](CO)NC(=O)[C@@H](NC(=O)[C@H](Cc1ccccc1)NC(=O)[C@@H](NC(=O)CNC(=O)[C@H](CCC(=O)O)NC(=O)CCNC(=O)C1(c2ccc(Cl)cc2)CCCC1)[C@@H](C)O)[C@@H](C)O)[C@@H](C)CC)[C@@H](C)CC)C(C)C)C(=O)N[C@@H](C)C(=O)NCC(=O)NCC(=O)N1CCC[C@H]1C(=O)N[C@@H](CO)C(=O)N[C@@H](CO)C(=O)NCC(=O)N[C@@H](C)C(=O)N1CCC[C@H]1C(=O)N1CCC[C@H]1C(=O)N1CCC[C@H]1C(=O)N[C@@H](CO)C(N)=O` [Compound 217] ({cPentCO(1-(4-ClPh))-βAla}-EGTFTSDYSI[Aib]LDKIAQK([AEEA-AEEA-γGlu-C20 diacid])AFVQWLIAGGPSSGAPPPS-NH2), the EC50 in test [1] is more than 1000 nM; in test [2], more than 1000 nM; in test [3] it was 0.1 to 1 nM; in test [4] it was 0.1 to 1 nM. Besides, the Emax in test [3] was determined as 108%; in test [4] it was 101%.
Regarding `CC[C@H](C)[C@H](NC(=O)[C@H](CC(C)C)NC(=O)[C@H](Cc1c[nH]c2ccccc12)NC(=O)[C@H](CCC(N)=O)NC(=O)[C@@H](NC(=O)[C@H](Cc1ccccc1)NC(=O)[C@H](C)NC(=O)[C@H](CCCCNC(=O)COCCOCCNC(=O)COCCOCCNC(=O)CC[C@H](NC(=O)CCCCCCCCCCCCCCCCCCC(=O)O)C(=O)O)NC(=O)[C@H](CCC(N)=O)NC(=O)[C@H](C)NC(=O)[C@@H](NC(=O)[C@H](CCCCN)NC(=O)[C@H](CC(=O)O)NC(=O)[C@H](CC(C)C)NC(=O)C(C)(C)NC(=O)[C@@H](NC(=O)[C@H](CO)NC(=O)[C@H](Cc1ccc(O)cc1)NC(=O)[C@H](CC(=O)O)NC(=O)[C@H](CO)NC(=O)[C@@H](NC(=O)[C@H](Cc1ccccc1)NC(=O)[C@@H](NC(=O)CNC(=O)[C@H](CCC(=O)O)NC(=O)CCNCCN1C(=O)COc2ccccc21)[C@@H](C)O)[C@@H](C)O)[C@@H](C)CC)[C@@H](C)CC)C(C)C)C(=O)N[C@@H](C)C(=O)NCC(=O)NCC(=O)N1CCC[C@H]1C(=O)N[C@@H](CO)C(=O)N[C@@H](CO)C(=O)NCC(=O)N[C@@H](C)C(=O)N1CCC[C@H]1C(=O)N1CCC[C@H]1C(=O)N1CCC[C@H]1C(=O)N[C@@H](CO)C(N)=O` [Compound 276] (X19-EGTFTSDYSI[Aib]LDKIAQK([AEEA-AEEA-γGlu-C20 diacid])AFVQWLIAGGPSSGAPPPS-NH2), the half-maximal effective concentration (EC50) was more than 1000 nM in test [1], more than 1000 nM in test [2], 100 to 1000 nM in test [3] and 10 to 100 nM in test [4]. For the same molecule, the Emax in test [3] turned out to be 35%; in test [4], 95%.
In the case of `CC[C@H](C)[C@H](NC(=O)[C@H](CC(C)C)NC(=O)[C@H](Cc1c[nH]c2ccccc12)NC(=O)[C@H](CCC(N)=O)NC(=O)[C@@H](NC(=O)[C@H](Cc1ccccc1)NC(=O)[C@H](C)NC(=O)[C@H](CCCCNC(=O)COCCOCCNC(=O)COCCOCCNC(=O)CC[C@H](NC(=O)CCCCCCCCCCCCCCCCCCC(=O)O)C(=O)O)NC(=O)[C@H](CCC(N)=O)NC(=O)[C@H](C)NC(=O)[C@@H](NC(=O)[C@H](CCCCN)NC(=O)[C@H](CC(=O)O)NC(=O)[C@H](CC(C)C)NC(=O)C(C)(C)NC(=O)[C@@H](NC(=O)[C@H](CO)NC(=O)[C@H](Cc1ccc(O)cc1)NC(=O)[C@H](CC(=O)O)NC(=O)[C@H](CO)NC(=O)[C@@H](NC(=O)[C@H](Cc1ccccc1)NC(=O)[C@@H](NC(=O)CNC(=O)[C@H](CCC(=O)O)NC(=O)[C@H](CNC(=O)C(C)(C)c1cc(F)cc(C#N)c1)c1ccccc1)[C@@H](C)O)[C@@H](C)O)[C@@H](C)CC)[C@@H](C)CC)C(C)C)C(=O)N[C@@H](C)C(=O)NCC(=O)NCC(=O)N1CCC[C@H]1C(=O)N[C@@H](CO)C(=O)N[C@@H](CO)C(=O)NCC(=O)N[C@@H](C)C(=O)N1CCC[C@H]1C(=O)N1CCC[C@H]1C(=O)N1CCC[C@H]1C(=O)N[C@@H](CO)C(N)=O` [Compound 170] ({Isobutyryl(2-(3-CN-5-F-Ph))}-[X49]EGTFTSDYSI[Aib]LDKIAQK([AEEA-AEEA-γGlu-C20 diacid])AFVQWLIAGGPSSGAPPPS-NH2), the half-maximal effective concentration (EC50) was more than 1000 nM in test [1], more than 1000 nM in test [2], 100 to 1000 nM in test [3] and 100 to 1000 nM in test [4]. Besides, the Emax amounted to 37% in test [3] and 57% in test [4].
In the case of `CC[C@H](C)[C@H](NC(=O)[C@H](CC(C)C)NC(=O)[C@H](Cc1c[nH]c2ccccc12)NC(=O)[C@H](CCC(N)=O)NC(=O)[C@@H](NC(=O)[C@H](Cc1ccccc1)NC(=O)[C@H](C)NC(=O)[C@H](CCCCNC(=O)COCCOCCNC(=O)COCCOCCNC(=O)CC[C@H](NC(=O)CCCCCCCCCCCCCCCCCCC(=O)O)C(=O)O)NC(=O)[C@H](CCC(N)=O)NC(=O)[C@H](C)NC(=O)[C@@H](NC(=O)[C@H](CCCCN)NC(=O)[C@H](CC(=O)O)NC(=O)[C@H](CC(C)C)NC(=O)C(C)(C)NC(=O)[C@@H](NC(=O)[C@H](CO)NC(=O)[C@H](Cc1ccc(O)cc1)NC(=O)[C@H](CC(=O)O)NC(=O)[C@H](CO)NC(=O)[C@@H](NC(=O)[C@H](Cc1ccccc1)NC(=O)[C@@H](NC(=O)CNC(=O)[C@H](CCC(=O)O)NC(=O)CCNC(=O)C1(n2cccn2)CCNCC1)[C@@H](C)O)[C@@H](C)O)[C@@H](C)CC)[C@@H](C)CC)C(C)C)C(=O)N[C@@H](C)C(=O)NCC(=O)NCC(=O)N1CCC[C@H]1C(=O)N[C@@H](CO)C(=O)N[C@@H](CO)C(=O)NCC(=O)N[C@@H](C)C(=O)N1CCC[C@H]1C(=O)N1CCC[C@H]1C(=O)N1CCC[C@H]1C(=O)N[C@@H](CO)C(N)=O` [Compound 160] ({X28-βAla}-EGTFTSDYSI[Aib]LDKIAQK([AEEA-AEEA-γGlu-C20 diacid])AFVQWLIAGGPSSGAPPPS-NH2), the concentration giving a half-maximal response (EC50) is more than 1000 nM in test [1], more than 1000 nM in test [2], 100 to 1000 nM in test [3] and 10 to 100 nM in test [4]. Further, the Emax amounted to 94% in test [3] and 97% in test [4].
As to `CC[C@H](C)[C@H](NC(=O)[C@H](CO)NC(=O)[C@H](Cc1ccc(O)cc1)NC(=O)[C@H](CC(=O)O)NC(=O)[C@H](CO)NC(=O)[C@@H](NC(=O)[C@H](Cc1ccccc1)NC(=O)[C@@H](NC(=O)CNC(=O)[C@H](CCC(=O)O)NC(=O)CCNC(=O)C(C)(C)c1cc(F)cc(C#N)c1)[C@@H](C)O)[C@@H](C)O)C(=O)N[C@@H](Cc1ccc(O)cc1)C(=O)N[C@@H](CC(C)C)C(=O)N[C@@H](CC(=O)O)C(=O)N[C@@H](CCCCN)C(=O)N[C@@H](CCCCNC(=O)COCCOCCNC(=O)COCCOCCNC(=O)CC[C@H](NC(=O)CCCCCCCCCCCCCCCCCCC(=O)O)C(=O)O)C(=O)N[C@@H](C)C(=O)N[C@@H](C)C(=O)NC(C)(C)C(=O)N[C@@H](CCC(=O)O)C(=O)N[C@@H](Cc1ccccc1)C(=O)N[C@H](C(=O)N[C@@H](CC(N)=O)C(=O)N[C@@H](Cc1c[nH]c2ccccc12)C(=O)N[C@@H](CC(C)C)C(=O)N[C@@H](CC(C)C)C(=O)N[C@@H](C)C(=O)NCC(=O)NCC(=O)N1CCC[C@H]1C(=O)N[C@@H](CO)C(=O)N[C@@H](CO)C(=O)NCC(=O)N[C@@H](C)C(=O)N1CCC[C@H]1C(=O)N1CCC[C@H]1C(=O)N1CCC[C@H]1C(=O)N[C@@H](CO)C(N)=O)C(C)C` [Compound 114] ({Isobutyryl(2-(3-CN-5-F-Ph))-βAla}-EGTFTSDYSIYLDKK([AEEA-AEEA-γGlu-C20 diacid])AA[Aib]EFVNWLLAGGPSSGAPPPS-NH2), the EC50 in test [1] is more than 1000 nM; in test [2], more than 1000 nM; in test [3], 10 to 100 nM; in test [4], 0.1 to 1 nM. Also, the Emax turned out to be 95% in test [3] and 114% in test [4].
